Assay results: patent publication US10730890B2, “Phthalocyanine derivative consisting of a mixture of 4 isomers” (MOLTENI THERAPEUTICS S.R.L., priority 2009, dated 2020)

Tests used:
[1] = pharmacological and toxicological activity of product (I) compared with compounds (V) and (VI); details: new isomers distribution (low isomer B content) with respect to compounds (V) and (VI)
[2] = solubilisation of intermediate (II) in DMF and THF/MeOH 1/1, HPLC analysis of the solutions; format: physicochemical; details: 2 mg/ml, isomer B precipitates
Procedure: Experimental Proof of the Difficulty of Preparing Solutions of (II), Due to the Low Solubility of the Isomer B.
Two samples of the same batch of intermediate (II) are solubilised (2 mg/ml) in, DMF and THF/MeOH 1/1. The solutions are appropriately diluted and analysed in HPLC. […] This behaviour can lead to the preparation of samples having variable composition and, ultimately, to the production of not reliable analytical data including the ones concerning the other isomers

| solubility of the isomer B in comparison to the other isomers [2] | Substance | difference in terms of pharmacological and toxicological activity [1] |
| --- | --- | --- |
|  | [1.8(11),15(18),22(25)-tetrakis-(3-N,N,N-trimethylammonium phenoxy)] Zinc Phthalocyaninate Tetrachloride “With Low Isomer B Content” [(I)] | does not imply any difference |
| lower solubility | [1,8(11),15(18),22(25)-tetrakis-(3-N,N-dimethylamino phenoxy)] Zinc Phthalocyaninate [isomer B] |  |
